Source: PMC10648852, “Molecular drivers of resistance to sulbactam-durlobactam in contemporary clinical isolates of Acinetobacter baumannii” (Antimicrobial Agents and Chemotherapy, 2023)
Read-outs that look alike come from different tables or passages of the source.

Legend:
Assay in all cases: microbe, parasite or virus in culture
[1] = tested on: ABC clinical isolates with SUL-DUR MIC > 4 µg/mL; format: cell-based, Acinetobacter baumannii-calcoaceticus complex; conditions: Acinetobacter
Method: (§1) The following report describes the genomic analysis of these isolates for likely resistance mechanisms. Biochemical analysis of purified PBP3 and phenotypic analyses of both clinical and isogenic strains were also conducted to determine the relative impact of key resistance determinants to SUL-DUR antibacterial activity.
(§2) Antimicrobial susceptibility testing was performed using broth microdilution following standardized methods established by the Clinical Laboratory Standards Institute (CLSI) ([35], [36]). […] MIC values were interpreted using CLSI breakpoints for all antimicrobial agents except those for which CLSI breakpoints are not available ([35]). SUL-DUR was tested as twofold dilutions of sulbactam in combination with a fixed concentration of 4 µg/mL durlobactam ([35]).

[2] = tested on: A. nosocomialis clinical isolate; format: cell-based; conditions: Acinetobacter nosocomialis, isolate ARC7023 (IHMA 2118812), France, BSI, 2019, read-out: MIC
Method: as §1, §2

[3] = tested on: A. pittii clinical isolates; format: cell-based; conditions: Acinetobacter pittii
Method: as §1, §2

[4] = tested on: A. baumannii clinical isolates; format: cell-based; conditions: Acinetobacter baumannii
Method: as §1, §2

Q: What does the source list for `CN(C)c1cc(NC(=O)CNC(C)(C)C)c(O)c2c1C[C@H]1C[C@H]3[C@H](N(C)C)C(O)=C(C(N)=O)C(=O)[C@@]3(O)C(O)=C1C2=O` [TIG, tigecycline]?
A: MIC50 [1]: 1 µg/mL; MIC90 [1]: 2 µg/mL; MIC ([1]; read-out: MIC Max): 16 µg/mL; MIC ([1]; read-out: MIC Min): 0.13 µg/mL; MIC [2]: 0.25 µg/mL; MIC ([3]; isolate ARC6949 (IHMA 1898982), Romania, RTI, 2018, read-out: MIC): 0.5 µg/mL; MIC ([3]; isolate ARC6951 (IHMA 1776233), Philippines, RTI, 2018, read-out: MIC): 0.25 µg/mL; MIC ([3]; isolate ARC6952 (IHMA 1899008), Romania, RTI, 2018, read-out: MIC): 1 µg/mL; MIC ([3]; isolate ARC7087 (IHMA 2212062), Colombia, BSI, 2020, read-out: MIC): 0.25 µg/mL; MIC ([4]; isolate ARC6644 (IHMA 1420327), Mexico, UTI, 2016, read-out: MIC): 1 µg/mL; MIC ([4]; isolate ARC6645 (IHMA 1435703), France, UTI, 2016, read-out: MIC): 0.25 µg/mL; MIC ([4]; isolate ARC6646 (IHMA 1484127), United States, RTI, 2016, read-out: MIC): 1 µg/mL; MIC ([4]; isolate ARC6647 (IHMA 1386786), Argentina, RTI, 2016, read-out: MIC): 0.12 µg/mL; MIC ([4]; isolate ARC6648 (IHMA 1407634), Spain, RTI, 2016, read-out: MIC): 1 µg/mL; MIC ([4]; isolate ARC6650 (IHMA 1457337), Argentina, RTI, 2016, read-out: MIC): 1 µg/mL; MIC ([4]; isolate ARC6652 (IHMA 1465642), Belgium, RTI, 2016, read-out: MIC): 0.25 µg/mL; MIC ([4]; isolate ARC6653 (IHMA 1308777), Vietnam, RTI, 2016, read-out: MIC): 1 µg/mL; MIC ([4]; isolate ARC6799 (IHMA 1562935), Spain, UTI, 2017, read-out: MIC): 1 µg/mL; MIC ([4]; isolate ARC6800 (IHMA 1557526), Turkey, RTI, 2017, read-out: MIC): 1 µg/mL; MIC ([4]; isolate ARC6801 (IHMA 1662094), Thailand, RTI, 2017, read-out: MIC): 1 µg/mL; MIC ([4]; isolate ARC6802 (IHMA 1557073), Spain, UTI, 2017, read-out: MIC): 1 µg/mL; MIC ([4]; isolate ARC6803 (IHMA 1589408), Belgium, UTI, 2017, read-out: MIC): 1 µg/mL; MIC ([4]; isolate ARC6805 (IHMA 1558650), United States, RTI, 2017, read-out: MIC): 1 µg/mL; MIC ([4]; isolate ARC6808 (IHMA 1557168), Spain, RTI, 2017, read-out: MIC): 1 µg/mL; MIC ([4]; isolate ARC6809 (IHMA 1699528), Guatemala, RTI, 2017, read-out: MIC): 0.5 µg/mL; MIC ([4]; isolate ARC6810 (IHMA 1699548), Guatemala, RTI, 2017, read-out: MIC): 1 µg/mL; MIC ([4]; isolate ARC6812 (IHMA 1699530), Guatemala, RTI, 2017, read-out: MIC): 0.5 µg/mL; MIC ([4]; isolate ARC6813 (IHMA 1699543), Guatemala, UTI, 2017, read-out: MIC): 0.25 µg/mL; MIC ([4]; isolate ARC6814 (IHMA 1699512), Guatemala, RTI, 2017, read-out: MIC): 1 µg/mL; MIC ([4]; isolate ARC6815 (IHMA 1699513), Guatemala, RTI, 2017, read-out: MIC): 0.5 µg/mL; MIC ([4]; isolate ARC6816 (IHMA 1699521), Guatemala, RTI, 2017, read-out: MIC): 2 µg/mL; MIC ([4]; isolate ARC6817 (IHMA 1699523), Guatemala, RTI, 2017, read-out: MIC): 0.5 µg/mL; MIC ([4]; isolate ARC6818 (IHMA 1683261), Thailand, RTI, 2017, read-out: MIC): 0.25 µg/mL; MIC ([4]; isolate ARC6819 (IHMA 1683267), Thailand, RTI, 2017, read-out: MIC): 2 µg/mL; MIC ([4]; isolate ARC6820 (IHMA 1647876), Argentina, RTI, 2017, read-out: MIC): 0.5 µg/mL; MIC ([4]; isolate ARC6821 (IHMA 1699517), Guatemala, RTI, 2017, read-out: MIC): 0.25 µg/mL; MIC ([4]; isolate ARC6822 (IHMA 1637626), Guatemala, RTI, 2017, read-out: MIC): 0.25 µg/mL; MIC ([4]; isolate ARC6823 (IHMA 1620872), Greece, SSSI, 2017, read-out: MIC): 1 µg/mL; MIC ([4]; isolate ARC6824 (IHMA 1625487), Argentina, BSI, 2017, read-out: MIC): 0.5 µg/mL; MIC ([4]; isolate ARC6937 (IHMA 1562926), Spain, UTI, 2017, read-out: MIC): 1 µg/mL; MIC ([4]; isolate ARC6950 (IHMA 1820064), Israel, RTI, 2018, read-out: MIC): 0.5 µg/mL; MIC ([4]; isolate ARC6953 (IHMA 1909827), Turkey, IAI, 2018, read-out: MIC): 0.5 µg/mL; MIC ([4]; isolate ARC6954 (IHMA 1838192), Guatemala, SSSI, 2018, read-out: MIC): 0.5 µg/mL; MIC ([4]; isolate ARC6955 (IHMA 1825425), United States, RTI, 2018, read-out: MIC): 0.5 µg/mL; MIC ([4]; isolate ARC7008 (IHMA 2009813), Thailand, BSI, 2019, read-out: MIC): 1 µg/mL; MIC ([4]; isolate ARC7009 (IHMA 2043611), United States, UTI, 2019, read-out: MIC): 1 µg/mL; MIC ([4]; isolate ARC7010 (IHMA 2043398), United States, RTI, 2019, read-out: MIC): 1 µg/mL; MIC ([4]; isolate ARC7011 (IHMA 2104553), Germany, RTI, 2019, read-out: MIC): 2 µg/mL; MIC ([4]; isolate ARC7012 (IHMA 2010001), Thailand, RTI, 2019, read-out: MIC): 1 µg/mL; MIC ([4]; isolate ARC7013 (IHMA 1962831), Argentina, RTI, 2019, read-out: MIC): 0.12 µg/mL; MIC ([4]; isolate ARC7014 (IHMA 2045328), Guatemala, IAI, 2019, read-out: MIC): 1 µg/mL; MIC ([4]; isolate ARC7015 (IHMA 2045327), Guatemala, UTI, 2019, read-out: MIC): 0.5 µg/mL; MIC ([4]; isolate ARC7016 (IHMA 2148441), Brazil, BSI, 2019, read-out: MIC): 0.5 µg/mL; MIC ([4]; isolate ARC7017 (IHMA 2148446), Brazil, BSI, 2019, read-out: MIC): 0.5 µg/mL; MIC ([4]; isolate ARC7018 (IHMA 2045454), Guatemala, IAI, 2019, read-out: MIC): 1 µg/mL; MIC ([4]; isolate ARC7019 (IHMA 2114463), Thailand, RTI, 2019, read-out: MIC): 16 µg/mL; MIC ([4]; isolate ARC7020 (IHMA 2045326), Guatemala, RTI, 2019, read-out: MIC): 1 µg/mL; MIC ([4]; isolate ARC7021 (IHMA 1966347), Guatemala, RTI, 2019, read-out: MIC): 0.5 µg/mL; MIC ([4]; isolate ARC7022 (IHMA 2045319), Guatemala, IAI, 2019, read-out: MIC): 2 µg/mL; MIC ([4]; isolate ARC7024 (IHMA 2059448), Turkey, RTI, 2019, read-out: MIC): 2 µg/mL; MIC ([4]; isolate ARC7025 (IHMA 2002121), Spain, RTI, 2019, read-out: MIC): 1 µg/mL; MIC ([4]; isolate ARC7026 (IHMA 2104494), Guatemala, BSI, 2019, read-out: MIC): 1 µg/mL; MIC ([4]; isolate ARC7082 (IHMA 2160640), Belgium, BSI, 2020, read-out: MIC): 1 µg/mL; MIC ([4]; isolate ARC7083 (IHMA 2163687), United States, RTI, 2020, read-out: MIC): 2 µg/mL; MIC ([4]; isolate ARC7084 (IHMA 2189596), Germany, RTI, 2020, read-out: MIC): 2 µg/mL; MIC ([4]; isolate ARC7085 (IHMA 2205747), Guatemala, IAI, 2020, read-out: MIC): 0.5 µg/mL; MIC ([4]; isolate ARC7086 (IHMA 2207563), Israel, RTI, 2020, read-out: MIC): 2 µg/mL; MIC ([4]; isolate ARC7088 (IHMA 2215554), Turkey, BSI, 2020, read-out: MIC): 2 µg/mL; MIC ([4]; isolate ARC7089 (IHMA 2240345), Argentina, BSI, 2020, read-out: MIC): 1 µg/mL; MIC ([4]; isolate ARC7090 (IHMA 2244410), Poland, RTI, 2020, read-out: MIC): 2 µg/mL; MIC ([4]; isolate ARC7091 (IHMA 2244564), Australia, RTI, 2020, read-out: MIC): 0.5 µg/mL; MIC ([4]; isolate ARC7092 (IHMA 2258772), United States, BSI, 2020, read-out: MIC): 1 µg/mL; MIC ([4]; isolate ARC7093 (IHMA 2258783), United States, RTI, 2020, read-out: MIC): 2 µg/mL; MIC ([4]; isolate ARC7094 (IHMA 2296423), Turkey, RTI, 2020, read-out: MIC): 1 µg/mL; MIC ([4]; isolate ARC7095 (IHMA 2320843), Turkey, BSI, 2020, read-out: MIC): 0.5 µg/mL; MIC ([4]; isolate ARC7156 (IHMA 2455450), Greece, RTI, 2021, read-out: MIC): 2 µg/mL; MIC ([4]; isolate ARC7158 (IHMA 2523738), Italy, BSI, 2021, read-out: MIC): 1 µg/mL; MIC ([4]; isolate ARC7159 (IHMA 2456229), Malaysia, RTI, 2021, read-out: MIC): 1 µg/mL; MIC ([4]; isolate ARC7160 (IHMA 2458626), Thailand, RTI, 2021, read-out: MIC): 2 µg/mL; MIC ([4]; isolate ARC7161 (IHMA 2429252), Ukraine, RTI, 2021, read-out: MIC): 2 µg/mL; MIC ([4]; isolate ARC7162 (IHMA 2411847), United States, BSI, 2021, read-out: MIC): 1 µg/mL; MIC ([4]; isolate ARC7163 (IHMA 2477704), United States, BSI, 2021, read-out: MIC): 1 µg/mL
